# Measured values from paper PMC3961306, “Comparison of the Cancer Gene Targeting and Biochemical Selectivities of All Targeted Kinase Inhibitors Approved for Clinical Use” (PLoS ONE, 2014).
# How the values were obtained:
# Assay in all cases: Kinase profiling in a biochemical assay panel (mobility shift assays and ELISA), %-inhibition at 1 μM; selectivity entropy
# [1] = biological target: T1, panel of more than 300 wild-type and mutant kinases (313 kinase panel) (Homo sapiens, UniProt Q9NZJ5)
# T1 sequence (Q9NZJ5 30-1116): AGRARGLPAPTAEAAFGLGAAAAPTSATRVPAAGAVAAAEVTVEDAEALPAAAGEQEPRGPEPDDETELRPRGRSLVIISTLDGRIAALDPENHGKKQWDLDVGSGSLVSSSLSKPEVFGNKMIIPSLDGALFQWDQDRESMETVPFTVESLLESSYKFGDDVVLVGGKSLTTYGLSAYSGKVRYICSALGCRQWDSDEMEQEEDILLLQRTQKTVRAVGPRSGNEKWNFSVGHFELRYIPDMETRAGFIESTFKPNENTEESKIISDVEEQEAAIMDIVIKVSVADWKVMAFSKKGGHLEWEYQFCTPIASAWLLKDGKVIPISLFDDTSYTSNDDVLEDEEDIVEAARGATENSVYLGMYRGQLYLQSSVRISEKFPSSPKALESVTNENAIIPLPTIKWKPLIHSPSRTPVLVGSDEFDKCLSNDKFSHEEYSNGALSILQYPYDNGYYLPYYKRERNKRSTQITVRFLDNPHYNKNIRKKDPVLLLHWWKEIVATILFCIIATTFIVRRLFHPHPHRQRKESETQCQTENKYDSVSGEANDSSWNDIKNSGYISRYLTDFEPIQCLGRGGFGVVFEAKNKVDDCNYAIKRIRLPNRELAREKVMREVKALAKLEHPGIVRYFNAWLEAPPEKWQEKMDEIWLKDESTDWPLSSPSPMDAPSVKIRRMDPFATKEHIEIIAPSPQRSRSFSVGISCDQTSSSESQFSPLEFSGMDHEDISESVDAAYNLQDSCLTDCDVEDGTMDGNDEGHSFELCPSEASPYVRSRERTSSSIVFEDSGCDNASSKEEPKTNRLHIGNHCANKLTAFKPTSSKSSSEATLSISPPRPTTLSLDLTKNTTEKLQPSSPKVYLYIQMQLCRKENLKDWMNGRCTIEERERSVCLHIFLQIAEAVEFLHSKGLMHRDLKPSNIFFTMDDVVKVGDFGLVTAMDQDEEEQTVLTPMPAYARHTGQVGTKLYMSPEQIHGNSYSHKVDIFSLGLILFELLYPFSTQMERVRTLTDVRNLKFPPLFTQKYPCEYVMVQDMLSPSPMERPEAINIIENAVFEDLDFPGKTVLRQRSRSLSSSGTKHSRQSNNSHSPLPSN
# [2] = biological target: panel of more than 300 wild-type and mutant kinases (313 kinase panel) (Homo sapiens, UniProt P07949)
# Sequence of panel of more than 300 wild-type and mutant kinases (313 kinase panel) (Homo sapiens, UniProt P07949) (P07949 29-1114, change not shown): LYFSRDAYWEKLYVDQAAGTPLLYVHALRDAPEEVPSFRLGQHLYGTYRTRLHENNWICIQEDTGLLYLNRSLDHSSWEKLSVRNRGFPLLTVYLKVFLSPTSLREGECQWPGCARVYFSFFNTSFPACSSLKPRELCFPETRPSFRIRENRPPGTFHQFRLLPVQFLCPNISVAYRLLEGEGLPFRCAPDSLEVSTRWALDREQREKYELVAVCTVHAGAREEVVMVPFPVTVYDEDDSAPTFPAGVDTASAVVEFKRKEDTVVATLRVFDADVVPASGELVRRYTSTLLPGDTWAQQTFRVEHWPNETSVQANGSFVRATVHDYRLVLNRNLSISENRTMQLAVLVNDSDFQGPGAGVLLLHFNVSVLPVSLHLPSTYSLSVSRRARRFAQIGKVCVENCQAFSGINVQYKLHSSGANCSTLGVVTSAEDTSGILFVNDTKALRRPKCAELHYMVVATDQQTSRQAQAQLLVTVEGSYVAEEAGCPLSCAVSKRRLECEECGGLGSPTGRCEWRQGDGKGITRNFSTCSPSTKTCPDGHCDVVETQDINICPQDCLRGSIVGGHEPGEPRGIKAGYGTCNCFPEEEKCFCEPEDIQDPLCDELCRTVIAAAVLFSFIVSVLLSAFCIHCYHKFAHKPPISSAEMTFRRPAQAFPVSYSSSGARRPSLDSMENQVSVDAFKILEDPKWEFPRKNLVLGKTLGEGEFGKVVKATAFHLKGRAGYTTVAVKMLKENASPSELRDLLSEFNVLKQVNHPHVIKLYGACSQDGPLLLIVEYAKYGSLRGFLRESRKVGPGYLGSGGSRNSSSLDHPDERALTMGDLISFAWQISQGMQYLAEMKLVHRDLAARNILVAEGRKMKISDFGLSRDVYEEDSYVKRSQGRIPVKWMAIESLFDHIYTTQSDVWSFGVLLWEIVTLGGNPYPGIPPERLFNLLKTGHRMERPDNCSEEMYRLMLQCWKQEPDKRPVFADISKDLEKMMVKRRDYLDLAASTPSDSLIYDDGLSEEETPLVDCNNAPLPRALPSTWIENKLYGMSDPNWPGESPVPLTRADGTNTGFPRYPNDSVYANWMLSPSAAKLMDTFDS
# [3] = biological target: panel of more than 300 wild-type and mutant kinases (313 kinase panel) (Homo sapiens, UniProt P51617)
# [4] = biological target: T2, panel of more than 300 wild-type and mutant kinases (313 kinase panel) (Homo sapiens, UniProt Q99683)
# T2 sequence (Q99683 1-1374): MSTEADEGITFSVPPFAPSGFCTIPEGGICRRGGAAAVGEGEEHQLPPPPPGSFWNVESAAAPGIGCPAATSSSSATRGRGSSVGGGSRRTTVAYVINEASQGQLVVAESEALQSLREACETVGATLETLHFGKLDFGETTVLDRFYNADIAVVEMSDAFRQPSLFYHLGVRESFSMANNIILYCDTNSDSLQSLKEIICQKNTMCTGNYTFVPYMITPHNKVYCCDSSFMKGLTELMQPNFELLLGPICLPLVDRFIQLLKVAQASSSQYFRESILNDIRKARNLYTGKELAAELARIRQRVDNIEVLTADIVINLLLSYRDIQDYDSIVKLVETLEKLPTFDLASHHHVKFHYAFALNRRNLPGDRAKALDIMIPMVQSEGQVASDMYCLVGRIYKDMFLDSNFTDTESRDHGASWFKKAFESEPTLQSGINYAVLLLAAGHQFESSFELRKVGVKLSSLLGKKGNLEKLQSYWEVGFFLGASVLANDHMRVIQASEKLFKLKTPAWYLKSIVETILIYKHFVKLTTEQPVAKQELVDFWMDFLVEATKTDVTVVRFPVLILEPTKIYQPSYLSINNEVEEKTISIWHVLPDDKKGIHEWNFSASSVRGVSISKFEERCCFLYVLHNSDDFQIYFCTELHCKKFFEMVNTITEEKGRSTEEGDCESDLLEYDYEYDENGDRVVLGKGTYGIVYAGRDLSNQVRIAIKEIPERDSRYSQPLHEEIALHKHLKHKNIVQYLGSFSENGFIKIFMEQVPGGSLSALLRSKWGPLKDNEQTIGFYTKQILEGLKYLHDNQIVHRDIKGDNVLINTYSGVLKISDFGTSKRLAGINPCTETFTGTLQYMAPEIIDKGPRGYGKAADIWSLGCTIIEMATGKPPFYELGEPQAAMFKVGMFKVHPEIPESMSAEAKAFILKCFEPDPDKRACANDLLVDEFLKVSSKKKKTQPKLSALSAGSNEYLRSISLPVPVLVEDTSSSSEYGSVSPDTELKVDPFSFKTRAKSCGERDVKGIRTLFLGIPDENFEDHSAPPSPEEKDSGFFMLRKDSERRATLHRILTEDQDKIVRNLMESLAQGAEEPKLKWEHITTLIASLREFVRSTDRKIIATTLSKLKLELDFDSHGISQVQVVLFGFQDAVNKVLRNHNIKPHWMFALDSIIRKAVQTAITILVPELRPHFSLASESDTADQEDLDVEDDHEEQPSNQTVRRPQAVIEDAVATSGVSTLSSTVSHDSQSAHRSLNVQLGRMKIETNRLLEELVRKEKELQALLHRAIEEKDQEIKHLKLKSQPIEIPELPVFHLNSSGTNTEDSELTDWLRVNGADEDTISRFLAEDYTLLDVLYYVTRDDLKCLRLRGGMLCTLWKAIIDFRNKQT
# [5] = kinase MAP3K5, compound at 1 μM
smiles,measurement,setting,value
CN(C)C/C=C/C(=O)Nc1cc2c(Nc3ccc(F)c(Cl)c3)ncnc2cc1O[C@H]1CCOC1 [afatinib],%-inhibition of PEK,"[1]; kinase PEK, 1 μM",12%
COc1cc(Nc2c(C#N)cnc3cc(OCCCN4CCN(C)CC4)c(OC)cc23)c(Cl)cc1Cl [bosutinib],%-inhibition of RET,"[2]; kinase RET, 1 μM",95%
same,%-inhibition of IRAK1,"[3]; kinase IRAK1, compound at 1 μM",12%
same,%-inhibition of PEK,"[1]; kinase PEK, 1 μM",11%
COc1cc2nccc(Oc3ccc(NC(=O)C4(C(=O)Nc5ccc(F)cc5)CC4)cc3)c2cc1OC [cabozantinib],%-inhibition of IRAK1,"[3]; kinase IRAK1, compound at 1 μM",14%
same,%-inhibition of MAP3K5,[4]; [5],1.72%
same,%-inhibition of PEK,"[1]; kinase PEK, 1 μM",79%
C[C@@H](Oc1cc(-c2cnn(C3CCNCC3)c2)cnc1N)c1c(Cl)ccc(F)c1Cl [crizotinib],%-inhibition of MAP3K5,[4]; [5],1.11%
same,%-inhibition of PEK,"[1]; kinase PEK, 1 μM",1.1%
CC(C)(C)c1nc(-c2cccc(NS(=O)(=O)c3c(F)cccc3F)c2F)c(-c2ccnc(N)n2)s1 [dabrafenib],%-inhibition of RET,"[2]; kinase RET, 1 μM",49%
same,%-inhibition of IRAK1,"[3]; kinase IRAK1, compound at 1 μM",-48%
Cc1nc(Nc2ncc(C(=O)Nc3c(C)cccc3Cl)s2)cc(N2CCN(CCO)CC2)n1 [dasatinib],%-inhibition of IRAK1,"[3]; kinase IRAK1, compound at 1 μM",2.75%
same,%-inhibition of MAP3K5,[4]; [5],-1.69%
C#Cc1cccc(Nc2ncnc3cc(OCCOC)c(OCCOC)cc23)c1 [erlotinib],%-inhibition of RET,[2]; 1 µM,70%
same,%-inhibition of IRAK1,[3]; 1 µM,-1.65%
same,%-inhibition of MAP3K5,[4]; 1 µM,5%
same,%-inhibition of PEK,[1]; 1 µM,1.35%
CO[C@H]1C[C@@H]2CC[C@@H](C)[C@@](O)(O2)C(=O)C(=O)N2CCCC[C@H]2C(=O)O[C@H]([C@H](C)C[C@@H]2CC[C@@H](OCCO)[C@H](OC)C2)CC(=O)[C@H](C)/C=C(\C)[C@@H](O)[C@@H](OC)C(=O)[C@H](C)C[C@H](C)/C=C/C=C/C=C/1C [everolimus],%-inhibition of RET,"[2]; kinase RET, 1 μM",-4%
same,%-inhibition of IRAK1,"[3]; kinase IRAK1, compound at 1 μM",12%
same,%-inhibition of MAP3K5,[4]; [5],2.56%
same,%-inhibition of PEK,"[1]; kinase PEK, 1 μM",5.28%
O=S(=O)(c1cccc2cnccc12)N1CCCNCC1 [fasudil],%-inhibition of RET,"[2]; kinase RET, 1 μM",-5%
same,%-inhibition of IRAK1,"[3]; kinase IRAK1, compound at 1 μM",3.42%
same,%-inhibition of MAP3K5,[4]; [5],-15%
same,%-inhibition of PEK,"[1]; kinase PEK, 1 μM",-7.4%
CS(=O)(=O)CCNCc1ccc(-c2ccc3ncnc(Nc4ccc(OCc5cccc(F)c5)c(Cl)c4)c3c2)o1 [lapatinib],%-inhibition of RET,[2]; 1 µM,-0.304%
same,%-inhibition of IRAK1,"[3]; kinase IRAK1, compound at 1 μM",3%
same,%-inhibition of MAP3K5,[4]; [5],6%
same,%-inhibition of PEK,"[1]; kinase PEK, 1 μM",-0.193%
Cc1cn(-c2cc(NC(=O)c3ccc(C)c(Nc4nccc(-c5cccnc5)n4)c3)cc(C(F)(F)F)c2)cn1 [nilotinib],%-inhibition of RET,[2]; 1 µM,31%
same,%-inhibition of IRAK1,"[3]; kinase IRAK1, compound at 1 μM",8%
same,%-inhibition of MAP3K5,[4]; [5],-2.28%
same,%-inhibition of PEK,"[1]; kinase PEK, 1 μM",0.387%
Cc1ccc(Nc2nccc(N(C)c3ccc4c(C)n(C)nc4c3)n2)cc1S(N)(=O)=O [pazopanib],%-inhibition of IRAK1,"[3]; kinase IRAK1, compound at 1 μM",8%
same,%-inhibition of MAP3K5,[4]; [5],18%
same,%-inhibition of PEK,"[1]; kinase PEK, 1 μM",2.38%
Cc1ccc(C(=O)Nc2ccc(CN3CCN(C)CC3)c(C(F)(F)F)c2)cc1C#Cc1cnc2cccnn12 [ponatinib],%-inhibition of RET,"[2]; kinase RET, 1 μM",102%
same,%-inhibition of IRAK1,"[3]; kinase IRAK1, compound at 1 μM",79%
same,%-inhibition of PEK,"[1]; kinase PEK, 1 μM",65%
CNC(=O)c1cc(Oc2ccc(NC(=O)Nc3ccc(Cl)c(C(F)(F)F)c3)c(F)c2)ccn1 [regorafenib],%-inhibition of RET,[2]; 1 µM,102%
same,%-inhibition of IRAK1,"[3]; kinase IRAK1, compound at 1 μM",16%
same,%-inhibition of MAP3K5,[4]; [5],5%
same,%-inhibition of PEK,"[1]; kinase PEK, 1 μM",12%
N#CC[C@H](C1CCCC1)n1cc(-c2ncnc3[nH]ccc23)cn1 [ruxolitinib],%-inhibition of IRAK1,"[3]; kinase IRAK1, compound at 1 μM",50%
same,%-inhibition of MAP3K5,[4]; [5],6%
same,%-inhibition of PEK,"[1]; kinase PEK, 1 μM",-0.459%
CCN(CC)CCNC(=O)c1c(C)[nH]c(/C=C2\C(=O)Nc3ccc(F)cc32)c1C [sunitinib],%-inhibition of IRAK1,"[3]; kinase IRAK1, compound at 1 μM",90%
CO[C@H]1C[C@@H]2CC[C@@H](C)[C@@](O)(O2)C(=O)C(=O)N2CCCC[C@H]2C(=O)O[C@H]([C@H](C)C[C@@H]2CC[C@@H](OC(=O)C(C)(CO)CO)[C@H](OC)C2)CC(=O)[C@H](C)/C=C(\C)[C@@H](O)[C@@H](OC)C(=O)[C@H](C)C[C@H](C)/C=C/C=C/C=C/1C [temsirolimus],%-inhibition of RET,"[2]; kinase RET, 1 μM",-3%
same,%-inhibition of IRAK1,"[3]; kinase IRAK1, compound at 1 μM",13%
same,%-inhibition of MAP3K5,[4]; [5],2.79%
same,%-inhibition of PEK,"[1]; kinase PEK, 1 μM",8%
CC(=O)Nc1cccc(-n2c(=O)n(C3CC3)c(=O)c3c(Nc4ccc(I)cc4F)n(C)c(=O)c(C)c32)c1 [trametinib],%-inhibition of RET,"[2]; kinase RET, 1 μM",-8%
same,%-inhibition of IRAK1,"[3]; kinase IRAK1, compound at 1 μM",6%
same,%-inhibition of MAP3K5,[4]; [5],17%
same,%-inhibition of PEK,"[1]; kinase PEK, 1 μM",1.13%
COc1cc2c(Nc3ccc(Br)cc3F)ncnc2cc1OCC1CCN(C)CC1 [vandetanib],%-inhibition of IRAK1,"[3]; kinase IRAK1, compound at 1 μM",46%
same,%-inhibition of MAP3K5,[4]; [5],8%
same,%-inhibition of PEK,"[1]; kinase PEK, 1 μM",4.69%
CCCS(=O)(=O)Nc1ccc(F)c(C(=O)c2c[nH]c3ncc(-c4ccc(Cl)cc4)cc23)c1F [vemurafenib],%-inhibition of RET,"[2]; kinase RET, 1 μM",32%
same,%-inhibition of IRAK1,"[3]; kinase IRAK1, compound at 1 μM",10%
same,%-inhibition of MAP3K5,[4]; [5],13%
same,%-inhibition of PEK,"[1]; kinase PEK, 1 μM",11%
